Article PMC10686834, “Targeting myeloid chemotaxis to reverse prostate cancer therapy resistance” (Nature, 2023)
Like-named read-outs stand apart in the source and are kept apart here.

Legend:
[1] = system: patients with ARSI-resistant mCRPC; test: Phase 1 trial of AZD5069 plus enzalutamide: antitumour activity (RECIST v.1.1, PSA, CTC count); assay type: in vivo, human
Excerpt: Patients needed to be on treatment for at least 12 weeks to be considered a responder. Thirteen patients had assessable measurable disease by Response Evaluation Criteria in Solid Tumors v.1.1. […] All patients classed as partial responders had radiologic progression-free survival of more than 6 months. […] Three of four patients classed as partial responders, for whom pre-treatment tissue biopsy was available for androgen receptor splice variant 7 (AR-V7) immunohistochemistry (IHC) including the patient who received only abiraterone previously, had tumour expressing AR-V7 protein.
Radiologic tumour responses were measured by computerized tomography of the thorax, abdomen and pelvis, bone scan, and, where indicated, whole-body magnetic resonance imaging, at baseline, once every 3 cycles, and then at the end of treatment if this was more than 8 weeks since the last scan. PSA and CTC count were measured at baseline, and then on day 1 of every cycle, and at the end of treatment. CTC counts were analysed using previously described methods.
Secondary endpoints were:(i) the rate of objective response, with objective response defined as confirmed soft tissue objective response by Response Evaluation Criteria in Solid Tumors v.1.1 in those with measurable disease, and/or PSA decline ≥50% confirmed 4 weeks or later, and/or CTC count conversion from ≥5 per 7.5 ml of blood at baseline to <5 per 7.5 ml of blood at nadir; (ii) pharmacokinetic parameters, including maximum concentration, area under the concentration–time curve; and (iii) pharmacodynamic changes including identifying patients whose blood NLR, neutrophil, and intratumour myeloid cell density decrease. Exploratory endpoints included blood cytokine levels and evaluation of tumour molecular profile on response.
Sample size was chosen pragmatically. According to the rule-based 3 + 3 design, which guided dose-escalation decisions, the cohort size was three patients and skipping of dose levels was not allowed. Patients who completed the DLT period or experienced a DLT during the DLT period were considered part of the evaluable population. Patients who received at least one dose of study drug were considered part of the safety population. To be evaluable for response, the patient must have met the eligibility criteria, received at least three cycles of trial medication, and have had baseline assessment of disease. Comparisons of baseline characteristics between patients classed as responders and those classed as non-responders were carried out using the two-sided Mann–Whitney U-test. Comparisons of paired pharmacokinetic and pharmacodynamic parameters were carried out using the two-sided paired Wilcoxon signed-rank test. Safety variables and pharmacokinetic and pharmacodynamic endpoints were summarized descriptively.

[2] = system: circulating CXCL1, CXCL2, CXCL5, CXCL6, CXCL7 and CXCL8; test: Circulating cytokine analyses (Luminex, ELISA) in patient serum; assay type: in vivo, human; settings: serial serum samples
Procedure: Serum samples were collected at baseline, on day 1 of every cycle, and on cycle 1 day 15. CXCL2, CXCL5, CXCL6, CXCL7 and CXCL8 were measured in patient serum (diluted 1:2 except for CXCL7, which was diluted 1:200), then analysed using R&D Systems Luminex discovery assays using the Luminex 200 and interpolated using a five-parameter logistic curve fit. CXCL1 was measured in neat patient serum using the R&D Systems human GROα Quantikine ELISA using the Perkin Elmer Envision 2103 Multilabel plate reader and interpolated using linear regression. The Luminex and ELISA assays were validated to good clinical practice compliance by The ICR and included quality control samples of serum, unspiked or spiked with recombinant protein standard, from healthy volunteer serum in every analytical run. A list of the ELISA reagents is provided in Supplementary Table 9.

[3] = system: LPS induced pulmonary neutrophilia; design: method as in AZD5069 Investigator Brochure (IB); settings: rat; ref AZD5069 Investigator Brochure (IB); cited from earlier work
[4] = system: CYP2C19; design: method as in AZD5069 Investigator Brochure (IB); settings: at concentrations of up to 100 μmol/L; ref AZD5069 Investigator Brochure (IB); cited from earlier work
[5] = system: CYP2D6; design: method as in AZD5069 Investigator Brochure (IB); settings: at concentrations of up to 100 μmol/L; ref AZD5069 Investigator Brochure (IB); cited from earlier work
[6] = system: monkey; settings: in vivo; cited from earlier work
[7] = system: rat; settings: in vivo; cited from earlier work
[8] = system: patients with advanced solid tumours or metastatic pancreatic ductal adenocarcinoma; settings: ref AZD5069 IB (07 July 2019), cited from earlier work
[9] = first partial responder at AZD5069 160 mg BD, at nadir (3–4 months)
[10] = partial responder at AZD5069 80 mg BD
[11] = partial responder at AZD5069 120 mg BD
[12] = second responder at AZD5069 160 mg BD
[13] = 109 patients in two oncology studies

In the case of `C[C@@H](Oc1cc(NS(=O)(=O)N2CCC2)nc(SCc2cccc(F)c2F)n1)[C@@H](O)CO` [AZD5069], the “objective partial response rate (RECIST v.1.1 ≥30% decrease, PSA decline ≥50% and/or CTC conversion)” value ([1]; 21 response-evaluable patients, all dose levels, plus enzalutamide) is reported as 24%, the CTC count ([1]; Patient 4 (as per Fig. 4a), C1D1) is reported as 5 CTC/7.5 ml blood and the CTC count ([1]; Patient 4, C1D15) is reported as 2 CTC/7.5 ml blood. It also gave a CTC count ([1]; Patient 4, C2D1) of 1 CTC/7.5 ml blood, a CTC count ([1]; Patient 4, C3D1) of 5 CTC/7.5 ml blood and a CTC count ([1]; Patient 4, C4D1) of 3 CTC/7.5 ml blood. It also gave a CTC count ([1]; Patient 4, C5D1) of 5 CTC/7.5 ml blood, a CTC count ([1]; Patient 4, C6D1) of 5 CTC/7.5 ml blood and a CTC count ([1]; Patient 4, C7D1) of 3 CTC/7.5 ml blood. For the same compound, the CTC count ([1]; Patient 4, C8D1) was 12 CTC/7.5 ml blood, the CTC count ([1]; Patient 4, C9D1) was 14 CTC/7.5 ml blood and the CTC count ([1]; Patient 4, C10D1) was 33 CTC/7.5 ml blood. It also gave a CTC count ([1]; Patient 4, C11D1) of 34 CTC/7.5 ml blood, a CTC count ([1]; Patient 4, C12D1) of 57 CTC/7.5 ml blood and a CTC count ([1]; Patient 4, C13D1) of 52 CTC/7.5 ml blood. For the same compound, the CTC count ([1]; Patient 4, C14D1) was 53 CTC/7.5 ml blood, the CTC count ([1]; Patient 4, C15D1) was 96 CTC/7.5 ml blood and the CTC count ([1]; Patient 4, C16D1) was 235 CTC/7.5 ml blood. The CTC count ([1]; Patient 4, C17D1) was 86 CTC/7.5 ml blood, the CTC count ([1]; Patient 4, C18D1) was 97 CTC/7.5 ml blood and the CTC count ([1]; Patient 4, Treatment Discontinuation) was 119 CTC/7.5 ml blood. The CTC count ([1]; Patient 10 (as per Fig. 4a), C1D1) was 39 CTC/7.5 ml blood, the CTC count ([1]; Patient 10, C1D15) was 26 CTC/7.5 ml blood and the CTC count ([1]; Patient 10, C2D1) was 19 CTC/7.5 ml blood. The CTC count ([1]; Patient 10, C3D1) was 0 CTC/7.5 ml blood, the CTC count ([1]; Patient 10, C4D1) was 10 CTC/7.5 ml blood and the CTC count ([1]; Patient 10, C5D1) was 46 CTC/7.5 ml blood. The CTC count ([1]; Patient 10, C9D1) was 101 CTC/7.5 ml blood, the CTC count ([1]; Patient 10, Treatment Discontinuation) was 129 CTC/7.5 ml blood and the “radiologic progression-free survival of patients classed as partial responders” value ([1]; all five partial responders) was “more than 6 months”. The radiologic progression-free survival ([1]; first partial responder at AZD5069 160 mg BD) was 8 months, the PSA fall [1, 9] was 84% and the “decrease in nodal disease” value [1, 9] was 20%. For the same compound, the PSA on treatment ([1]; first partial responder at AZD5069 160 mg BD, at nadir, from 344 ng ml^−1) was 55 ng/mL, the “duration of CTC conversion” value [1, 10] was “seven” and the time on trial [1, 10] was 16 months. The CTC count ([1]; partial responder at AZD5069 80 mg BD, at cycle 2, baseline 9) was 1 per 7.5 ml of blood, the “duration of radiologic and clinical responses” value [1, 11] was 11 months and the “reduction of measurable disease” value [1, 11] was 31%. The PSA fall ([1]; partial responder at AZD5069 120 mg BD, after 5 cycles) was 89%, the PSA on treatment ([1]; partial responder at AZD5069 120 mg BD, after 5 cycles, from 98 ng ml^−1) was 11 ng/mL and the “time to new bone metastases” value ([1]; partial responder at AZD5069 320 mg BD) was 8 months. For the same compound, the PSA reduction ([1]; partial responder at AZD5069 320 mg BD, after four cycles) was 64%, the PSA on treatment ([1]; partial responder at AZD5069 320 mg BD, after four cycles, from 129 ng ml^−1) was 47 ng/mL and the PSA change [1, 12] was “no PSA decrease”. For the same compound, the radiologic progression-free survival [1, 12] was 8 months, the “CTC count, peak” value ([1]; second responder at AZD5069 160 mg BD, during cycle 1, baseline 11) was 39 per 7.5 ml of blood and the CTC count ([1]; second responder at AZD5069 160 mg BD, during cycle 4) was 0 per 7.5 ml of blood. For the same compound, the “levels of circulating CXCL1, CXCL2 and CXCL8 after treatment” value [2] was “increased in a dose-dependent manner”, the “levels of circulating CXCL5, CXCL6 and CXCL7 after treatment” value [2] was “did not consistently increase” and the “effect on LPS induced pulmonary neutrophilia” value [3] was “dose dependent inhibition”. The “inhibition of CYP2C19” value [4] was “not an inhibitor”, the “inhibition of CYP2D6” value [5] was “not an inhibitor” and the “tolerated single doses (maximum feasible dose)” value [6] was no more than 350 mg/kg BD. For the same compound, the tolerated single doses [7] was “up to 600 mg/kg”, the “causally-related AEs that led to treatment discontinuation” value ([8]; 109 patients in two oncology studies (four patients)) was 3.7% and the “causally-related AEs of CTCAE ≥Grade 3: fatigue” value [8, 13] was 4.6%. The “causally-related AEs of CTCAE ≥Grade 3: neutropenia” value [8, 13] was 11.0%, the “causally-related AEs of CTCAE ≥Grade 3: neutrophil count decreased” value [8, 13] was 4.6% and the “causally-related AEs: decreased appetite” value [8, 13] was 20.2%. The “causally-related AEs: diarrhoea” value [8, 13] was 10.1%, the “causally-related AEs: fatigue” value [8, 13] was 22.9% and the “causally-related AEs: nausea” value [8, 13] was 11.9%. For the same compound, the “causally-related AEs: neutropenia” value [8, 13] was 15.6%, the “causally-related AEs: neutrophil count decreased” value [8, 13] was 11.0% and the “causally-related SAEs” value [8, 13] was 9.2%. For the same compound, the “fatal AE considered treatment-related” value [8, 13] was “no fatal AE”, the “most common AEs: decreased appetite” value [8, 13] was 35.8% and the “most common AEs: fatigue” value [8, 13] was 38.5%. The “most common AEs: nausea” value [8, 13] was 28.4%, the “patients with adverse events considered related to study treatment” value [8, 13] was 73.4% and the neutrophil count decreased ([8]; Study NCT02499328, 40 mg BD dose (4/64)) was 6.3%. For the same compound, the neutrophil count decreased ([8]; Study NCT02499328, 80 mg BD dose (6/25)) was 24%.
